# Values of other authors in patent EP2736496B1, “PHARMACEUTICAL COMPOSITION CONTAINING AN ANTIMUSCARINIC AGENT AND METHOD FOR THE PREPARATION THEREOF” (Pharmathen S.A., priority 2011, dated 2013).
smiles,measurement,value
"Cc1ccc(O)c([C@H](CCN(C(C)C)C(C)C)c2ccccc2)c1 [Tolterodine, (R)-N, N-diisopropyl-3-(2-hydroxy-5-methylphenyl)-3-phenylpropylamine]",water solubility,12 mg/mL
